{
  "source": "patent US20220143123A1",
  "about": "“Prevention of Pathological Coagulation in COVID-19 and other Inflammatory Conditions” (priority 2020, published 2022)",
  "key": {"[1]": {"tested_on": "BALB/c mice with LPS-induced ARDS", "settings": "cited from earlier work"}, "Tissue Factor": {"tested_on": "Tissue Factor", "test": "TNF-alpha induced Tissue Factor expression in HUVEC, flow cytometry", "assay_type": "cell-based, human", "settings": "TNF-alpha stimulation 48 hours", "description": "In the experiments below, human umbilical vein endothelial cells (HUVEC) where purchased from AllCells and grown in Opti-MEM media with complete fetal calf serum. Cells were stimulated with the indicated concentrations of TNF-alpha for 48 hours and incubated with the indicated concentrations of individual components of QuadraMune™ as well as the combination. Quantification of Tissue Factor was performedby flow cytometry and expressed as mean fluorescent intensity (MFI)."}, "[2]": {"tested_on": "LPS-challenged macrophages", "settings": "pre-incubated 6 h (0 to 50 μM), LPS 24 h; cited from earlier work"}, "[3]": {"tested_on": "Nrf2 (+/+) primary peritoneal macrophages", "settings": "cited from earlier work"}, "[4]": {"tested_on": "nuclear factor-κB (NF-κB)", "settings": "macrophage foam cells; cited from earlier work"}, "[5]": {"tested_on": "rats subjected to myocardial ischemia and reperfusion", "settings": "10 mg/kg intravenously then 10 mg/kg/h infusion; cited from earlier work"}, "C57BL6 mice": {"tested_on": "C57BL6 mice", "settings": "10 mg/kg intraperitoneally, 72 h after CL2P; cited from earlier work"}, "[6]": {"tested_on": "mice with experimental colitis", "settings": "50 and 100 mg/kg/day; cited from earlier work"}, "male Sprague-Dawley rats": {"tested_on": "male Sprague-Dawley rats", "settings": "10 mg/kg intraperitoneally at 1 and 6 h after CL2P and every 12 h; cited from earlier work"}, "mice": {"tested_on": "mice", "settings": "cited from earlier work"}, "[7]": {"tested_on": "mice with LPS-induced ARDS", "settings": "10 mg/kg ip; cited from earlier work"}, "[8]": {"tested_on": "lipopolysaccharide-activated macrophages", "settings": "cited from earlier work"}, "[9]": {"tested_on": "mice challenged with endotoxin (LPS O111:B4) or live Escherichia coli", "settings": "cited from earlier work; for concentration of IL-1α: controls 1187.0±278.64"}, "[10]": {"tested_on": "lipopolysaccharide-induced inflammatory reactions", "settings": "cited from earlier work"}, "[11]": {"tested_on": "lectin-like oxLDL receptor-1 (LOX-1)", "settings": "in vitro and in vivo; cited from earlier work"}, "[12]": {"tested_on": "human umbilical vein VECs (HUVECs)", "settings": "oxLDL 200 μg/ml; cited from earlier work"}, "[13]": {"tested_on": "interleukin-1, interleukin-6, interleukin-8, TNF-alpha", "settings": "cited from earlier work"}, "NK cell": {"tested_on": "NK cell", "test": "Nanostilbene in cancer patients: NK cell activity and interferon gamma production", "assay_type": "in vivo, human", "settings": "pterostilbene administered in the form of nanostilbene in cancer patients"}, "apoE(−/−) mice": {"tested_on": "apoE(−/−) mice", "settings": "injection; cited from earlier work"}, "[14]": {"settings": "animal studies; cited from earlier work"}, "[15]": {"settings": "50 mg/kg, LPS 5 mg/kg 3 days later"}},
  "note": "Entries after “also recorded” stand apart in the source; their conditions may differ. Where two headings read alike, the source gives them in different places.",
  "data": [
    {"molecule": "C[S+]([O-])CCCCN=C=S", "note": "(stereo not drawn) [sulforaphane, 1-isothiocyanato-4-(methylsulfinyl)-butane]", "values": [
      {"measurement": "serum levels of IL-6 and TNF-α, nuclear factor-κB protein expression", "setting": "[1]; 50 mg/kg, ELISA", "value": "significantly decreased"},
      {"measurement": "lactate dehydrogenase (LDH) activity", "setting": "[1]; [15]", "value": "significantly decreased"},
      {"measurement": "wet-to-dry ratio of the lungs", "setting": "[1]; [15]", "value": "significantly decreased"},
      {"measurement": "PGE2 production, COX-2 and MMP-9 protein expression, iNOS activity", "setting": "[1]; 50 mg/kg", "value": "significantly inhibited"},
      {"measurement": "Nrf2/antioxidant response element (ARE) pathway", "setting": "[1]; pre-treatment", "value": "activated"},
      {"measurement": "TNF-alpha induced Tissue Factor expression (mean fluorescent intensity)", "setting": "Tissue Factor", "value": "reduction of TNF-alpha induced Tissue Factor expression"},
      {"measurement": "TNF-alpha induced Tissue Factor expression (mean fluorescent intensity)", "setting": "Tissue Factor; listed as Sulforaphane", "value": "reduces inflammation induced tissue factor expression"},
      {"measurement": "expression of NO and cytokines", "setting": "[2]", "value": "able to prevent the expression of NO and cytokines"},
      {"measurement": "HO-1 expression", "setting": "[3]; LPS-stimulated Nrf2 (+/+) macrophages", "value": "significantly augmented"},
      {"measurement": "LPS-stimulated mRNA expression, protein expression and production of TNF-alpha, IL-1beta, COX-2 and iNOS", "setting": "[3]; pretreatment, Nrf2 (+/+) macrophages", "value": "potently inhibited"}
    ]},
    {"molecule": "epigallocatechin-3-gallate [EGCG]", "values": [
      {"measurement": "TNF-α-induced NF-κB activity", "setting": "[4]", "value": "inhibition of the TNF-α-induced nuclear factor-κB (NF-κB) activity"},
      {"measurement": "myocardial damage and myeloperoxidase activity", "setting": "[5]", "value": "reduced myocardial damage and myeloperoxidase activity"},
      {"measurement": "plasma IL-6 and creatine phosphokinase levels", "setting": "[5]", "value": "decreased"},
      {"measurement": "survival", "setting": "C57BL6 mice", "value": "significantly improved"},
      {"measurement": "plasma levels of IL-10 and TGF-β1", "setting": "[6]", "value": "increasing the plasma levels of IL-10 and TGF-β1"},
      {"measurement": "release of IL-6 and IL-17", "setting": "[6]", "value": "reduce the release of IL-6 and IL-17"},
      {"measurement": "hypotension (mean arterial blood pressure)", "setting": "male Sprague-Dawley rats", "value": "significantly improved"},
      {"measurement": "rescue from lethal sepsis", "setting": "mice; first dose 24 hours after cecal ligation and puncture", "value": "rescued mice from lethal sepsis"},
      {"measurement": "protection against lethal endotoxemia", "setting": "mice; intraperitoneal administration", "value": "protected mice against lethal endotoxemia"},
      {"measurement": "TNF-alpha induced Tissue Factor expression (mean fluorescent intensity)", "setting": "Tissue Factor", "value": "reduces inflammation induced tissue factor expression; also recorded: reduction of TNF-alpha induced Tissue Factor expression"},
      {"measurement": "expression of TNF-α, IL-1β and IL-6 in lung, serum and bronchoalveolar lavage fluid", "setting": "[7]", "value": "significantly decreased"},
      {"measurement": "activation of nuclear factor-kappaB", "setting": "[8]; electrophoretic mobility shift assay", "value": "blocked the activation of nuclear factor-kappaB"},
      {"measurement": "nitric oxide (NO) generation", "setting": "[8]; marker of activated macrophages", "value": "inhibit nitric oxide (NO) generation"}
    ]},
    {"molecule": "CC1=CC(=O)C(C(C)C)=CC1=O", "note": "[thymoquinone]", "values": [
      {"measurement": "concentration of IL-1α", "setting": "[9]; 0.75 mg/kg dose", "value": "310.8 ± 70.93", "unit": "pg/mL"},
      {"measurement": "IL-10 levels", "setting": "[9]; 0.75 mg/kg, controls 5505.2±333.96", "value": "2885.0 ± 553.98", "unit": "pg/mL"},
      {"measurement": "concentration of IL-1α", "setting": "[9]; 1 mg/kg group", "value": "428.3 ± 71.32", "unit": "pg/mL"},
      {"measurement": "levels of TNF-α and IL-2", "setting": "[9]; P values=0.1817 and 0.0851", "value": "relatively lower levels of TNF-α and IL-2"},
      {"measurement": "reduction of mortality", "setting": "[9]; mice, sepsis", "value": "80-90%"},
      {"measurement": "renal and hepatic biomarker profiles", "setting": "[9]; mice, sepsis", "value": "improved both renal and hepatic biomarker profiles"},
      {"measurement": "lipopolysaccharide-induced inflammatory reactions", "setting": "[10]", "value": "suppressed effectively the lipopolysaccharide-induced inflammatory reactions"},
      {"measurement": "concentration of nitric oxide", "setting": "[10]; marker of inflammation", "value": "reduced significantly the concentration of nitric oxide"},
      {"measurement": "TNF-alpha induced Tissue Factor expression (mean fluorescent intensity)", "setting": "Tissue Factor", "value": "reduction of TNF-alpha induced Tissue Factor expression"},
      {"measurement": "TNF-alpha induced Tissue Factor expression (mean fluorescent intensity)", "setting": "Tissue Factor; listed as Thymoquinone", "value": "reduces inflammation induced tissue factor expression"}
    ]},
    {"molecule": "trans-3,5-dimethoxy-4-hydroxystilbene [pterostilbene]", "values": [
      {"measurement": "LOX-1 expression", "setting": "[11]", "value": "inhibited the expression of lectin-like oxLDL receptor-1 (LOX-1)"},
      {"measurement": "protection against oxLDL-induced cell shrinkage, chromatin condensation, nuclear fragmentation, apoptosis", "setting": "[12]", "value": "protected against such injuries"},
      {"measurement": "inhibition of inflammatory cytokines (interleukin-1, interleukin-6, interleukin-8, TNF-alpha)", "setting": "[13]", "value": "inhibit inflammatory cytokines associated with ARDS"},
      {"measurement": "TNF-alpha induced Tissue Factor expression (mean fluorescent intensity)", "setting": "Tissue Factor", "value": "reduction of TNF-alpha induced Tissue Factor expression"},
      {"measurement": "TNF-alpha induced Tissue Factor expression (mean fluorescent intensity)", "setting": "Tissue Factor; listed as Pterostilbene", "value": "reduces inflammation induced tissue factor expression"},
      {"measurement": "NK cell activity", "setting": "NK cell", "value": "increased NK cell activity"},
      {"measurement": "interferon gamma production", "setting": "NK cell", "value": "increased"},
      {"measurement": "number of TUNEL-positive cells in the endothelium of atherosclerotic plaque", "setting": "apoE(−/−) mice", "value": "strongly decreased the number of TUNEL-positive cells"},
      {"measurement": "bioavailability", "setting": "[14]", "value": 80, "unit": "%"}
    ]}
  ]
}
